# Laboratory results reported in ChEMBL document CHEMBL1135204, “Synthesis and muscarinic M2 subtype antagonistic activity of unnatural ent-himbacine and an enantiomeric pair of (2'S,6'R)-diepihimbacine” (Bioorg Med Chem Lett, 2002).
# How the values were obtained:
# [1] = target: T1, Muscarinic acetylcholine receptor M1 (Rattus norvegicus, UniProt P08482); experiment: Binding affinity against the muscarinic M1 (cortex) subtype was evaluated using [3H]pirenzepine
# T1 sequence (P08482 whole entry): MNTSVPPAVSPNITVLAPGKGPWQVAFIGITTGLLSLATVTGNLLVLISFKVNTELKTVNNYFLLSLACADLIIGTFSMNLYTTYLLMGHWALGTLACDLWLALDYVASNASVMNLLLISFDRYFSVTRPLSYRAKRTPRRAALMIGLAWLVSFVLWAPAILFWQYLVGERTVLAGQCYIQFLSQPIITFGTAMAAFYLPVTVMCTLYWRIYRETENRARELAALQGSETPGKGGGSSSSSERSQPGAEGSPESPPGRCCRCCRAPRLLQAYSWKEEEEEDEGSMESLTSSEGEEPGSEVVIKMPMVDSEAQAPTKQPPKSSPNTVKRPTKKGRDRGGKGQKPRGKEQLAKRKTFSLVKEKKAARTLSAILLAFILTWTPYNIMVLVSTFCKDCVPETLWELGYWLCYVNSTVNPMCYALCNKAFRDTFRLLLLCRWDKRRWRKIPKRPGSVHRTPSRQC
# [2] = target: T2, Muscarinic acetylcholine receptor M2 (Rattus norvegicus, UniProt P10980); experiment: Binding affinity against the muscarinic M2 (brainstem) subtype was evaluated using [3H]quinuclidinyl benzilate; format: tissue-based
# T2 sequence (P10980 whole entry): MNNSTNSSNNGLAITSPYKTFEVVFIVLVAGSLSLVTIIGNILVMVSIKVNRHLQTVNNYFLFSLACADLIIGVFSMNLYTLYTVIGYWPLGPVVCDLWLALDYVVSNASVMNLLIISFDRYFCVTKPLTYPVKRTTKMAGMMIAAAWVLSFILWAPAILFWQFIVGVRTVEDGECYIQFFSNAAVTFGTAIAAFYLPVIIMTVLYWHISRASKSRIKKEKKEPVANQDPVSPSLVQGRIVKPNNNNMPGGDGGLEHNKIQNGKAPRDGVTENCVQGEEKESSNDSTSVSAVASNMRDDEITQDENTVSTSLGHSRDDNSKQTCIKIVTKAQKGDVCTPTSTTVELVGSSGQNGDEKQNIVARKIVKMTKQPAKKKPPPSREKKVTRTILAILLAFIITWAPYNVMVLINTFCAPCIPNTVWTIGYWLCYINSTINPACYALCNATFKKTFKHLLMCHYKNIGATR
Structure (SMILES),Ki [1],Ki [2]
C[C@@H]1OC(=O)[C@H]2C[C@H]3CCCC[C@@H]3[C@@H](/C=C/[C@@H]3CCC[C@@H](C)N3C)[C@@H]12,316 nM,200 nM
C[C@H]1OC(=O)[C@@H]2C[C@@H]3CCCC[C@H]3[C@H](/C=C/[C@H]3CCC[C@H](C)N3C)[C@H]12,316 nM,200 nM
"C[C@@H]1CCC[C@@H](/C=C/[C@H]2[C@@H]3CCCC[C@H]3C[C@H]3C(=O)O[C@H](C)[C@@H]23)N1C (single isomer, unassigned; ent-1)",1000 nM,794 nM
C[C@@H]1OC(=O)[C@H]2C[C@H]3CCCC[C@@H]3[C@@H](/C=C/[C@H]3CCC[C@H](C)N3C)[C@@H]12 [HIMBACINE],63.1 nM,10 nM
